Columns and labels:
Type in all cases: cell-based, human
HCT-116 cells [1] = assay: Inhibition test for sphere-forming ability of cancer cells (Test Example 1), HCT-116; conditions: for IC50: HCT-116 cells, concentration for 50% inhibition of cell proliferation, read-out: IC50 (μmol/L) HCT-116 (Sphere IC50 value); for inhibitory effect on the sphere-forming ability of cancer cells: Test Example 1, summary in words, cell line not given (HCT-116, HT-29, FaDu tested)
Procedure, shortened: (§1)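 Cells were seeded at 350-800 cells/well in ultra-low-attachment plates in serum-free DMEM/F12 with 2% B27, 20 ng/mL EGF, 10 ng/mL bFGF and 5 μg/mL insulin. Compounds were added at 0.1% final DMSO for 4 days. Viable cells were read by CellTiter-Glo luminescence to give Sphere IC50 (μmol/L).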

HT-29 cells [2] = assay: Inhibition test for sphere-forming ability of cancer cells (Test Example 1), HT-29; conditions: concentration for 50% inhibition of cell proliferation, read-out: IC50 (μmol/L) HT-29 (Sphere IC50 value)
Procedure, shortened: as §1

FaDu cells [3] = assay: Inhibition test for sphere-forming ability of cancer cells (Test Example 1), FaDu; conditions: concentration for 50% inhibition of cell proliferation, read-out: IC50 (μmol/L) FaDu (Sphere IC50 value)
Procedure, shortened: as §1

HCT-116 cells [4] = assay: Inhibition test for sphere-forming ability of cancer cells in the presence of BSA (Test Example 2), HCT-116; conditions: for IC50: HCT-116 cells, in the presence of 5% BSA, cultured 4 days; for inhibitory effect on the sphere-forming ability of cancer cells: Test Example 2, in the presence of 5% BSA, summary in words, cell line not given (HCT-116, HT-29, FaDu tested)
Experimental: (§2) Human colorectal cancer-derived HCT-116 cells, human colon-adenocarcinoma-derived HT-29 cells, and human pharyngeal cancer-derived FaDu cells were available from American Type Culture Collection (ATCC). HCT-116 cells and HT-29 cells were cultured at 37° C. under 5% CO2 using the McCoy's 5a medium containing 10% fetal bovine serum (FBS) and 1% penicillin/streptomycin, and FaDu cells were cultured at 37° C. under 5% CO2 using the MEM medium containing 10% FBS, 1% non-essential amino acid, 1% sodium pyruvate, 5% bovine serum albumin (BSA), and 1% penicillin/streptomycin. HCT-116 cells, HT-29 cells, and FaDu cells were seeded in a 384 Well Black Clear Bottom Ultra-Low Attachment Microplate (Corning Cat. No. 3827) in an amount of 350-800 cells/well using the DMEM/F12 medium containing 2% B27 supplement (GIBCO), 20 ng/mL epidermal growth factor (EGF) (peprotech), 10 ng/mL basic fibroblast growth factor (bFGF) (peprotech), 5 μg/mL insulin (Sigma), 5% bovine serum albumin (BSA), and 1% penicillin/streptomycin. Each test compound was added into each well to adjust the final concentration of DMSO to 0.1%, and the cells were cultured for 4 days. The number of viable cells in each well was then measured with CellTiter-Glo® Luminescent Cell Viability Assay (Promega) to calculate the concentration of each test compound for 50% inhibition of cell proliferation (Sphere IC50 value; μmol/L).
(§3) The experiment of Test Example 2 was performed for each compound of each Example.
(§4) The concentration of each test compound for 50% inhibition of cell proliferation (Sphere IC50 value; μmol/L) is shown in the following Table.

HT-29 cells [5] = assay: Inhibition test for sphere-forming ability of cancer cells in the presence of BSA (Test Example 2), HT-29; conditions: in the presence of 5% BSA, cultured 4 days
Experimental: as §2, §3, §4

FaDu cells [6] = assay: Inhibition test for sphere-forming ability of cancer cells in the presence of BSA (Test Example 2), FaDu; conditions: in the presence of 5% BSA, cultured 4 days
Experimental: as §2, §3, §4

Compound | IC50 (HCT-116 cells [1]; Homo sapiens) | IC50 (HT-29 cells [2]; Homo sapiens) | IC50 (FaDu cells [3]; Homo sapiens) | IC50 (HCT-116 cells [4]; Homo sapiens, HCT-116, 96 h) | IC50 (HT-29 cells [5]; Homo sapiens, 96 h) | IC50 (FaDu cells [6]; Homo sapiens, 96 h) | IC50 (HCT-116 cells [1]) | IC50 (HT-29 cells [2]) | IC50 (FaDu cells [3]) | IC50 (HCT-116 cells [4]) | IC50 (HT-29 cells [5]) | IC50 (FaDu cells [6]) | inhibitory effect on the sphere-forming ability of cancer cells (HCT-116 cells [1]) | inhibitory effect on the sphere-forming ability of cancer cells (HCT-116 cells [4])
O=C(/C=C/c1ccc(F)c(OCCO)c1)Nc1cn(Cc2cccc(Cl)c2)cn1 [Example 40] | 0.48 µmol/L | 0.18 µmol/L | 0.05 µmol/L | 7450 nM | 3330 nM | 580 nM |  |  |  |  |  |  |  | 
COc1ccc(C(=O)Nc2cn(Cc3ccc(F)c(F)c3F)cn2)cc1OC [Example 153] |  |  |  |  |  |  | 0.66 µmol/L | 0.73 µmol/L | 0.82 µmol/L | 6390 nM | 3200 nM | 660 nM |  | 
Cc1csc(NC(=O)c2cn(Cc3cccc(Cl)c3)cn2)n1 [Example 257] |  |  |  |  |  |  | 0.8 µmol/L | 0.8 µmol/L | 0.71 µmol/L | 7460 nM | 5990 nM | 4440 nM |  | 
CCNc1ccc(/C=C/C(=O)Nc2cn(Cc3cccc(Cl)c3)cn2)cn1 [Example 18] |  |  |  |  |  |  | 0.07 µmol/L | 0.02 µmol/L | 0.06 µmol/L | 580 nM | 50 nM | 30 nM | particularly potent inhibitory effect | particularly potent inhibitory effect
N#Cc1ccc(/C=C/C(=O)Nc2cn(Cc3cccc(C(F)(F)F)c3)cn2)cc1OCCO [Example 36, (E)-3-(4-Cyano-3-(2-hydroxyethoxy)phenyl)-N-(1-(3-(trifluoromethyl)benzyl)-1H-imidazol-4-yl)acrylamide] | 0.08 µmol/L | 0.06 µmol/L | 0.08 µmol/L | 690 nM | 520 nM | 60 nM |  |  |  |  |  |  | particularly potent inhibitory effect | particularly potent inhibitory effect
COc1ccc(C(=O)Nc2cn(Cc3cc(F)c(F)c(F)c3)cn2)cc1OC [Example 236, 3,4-dimethoxy-N-[1-(3,4,5-trifluorobenzyl)-1H-imidazol-4-yl]benzamide] | 0.06 µmol/L | 0.05 µmol/L | 0.05 µmol/L | 360 nM | 60 nM | 40 nM |  |  |  |  |  |  | particularly potent inhibitory effect | particularly potent inhibitory effect
COc1ccc(C(=O)Nc2cn(Cc3ccc(F)cc3C(F)(F)F)cn2)cc1OC [Example 163] |  |  |  |  |  |  | 3.56 µmol/L | 1.51 µmol/L | 1.73 µmol/L | > 10000 nM | 5460 nM | 5040 nM |  | 
CNc1ccc(/C=C/C(=O)Nc2cn(Cc3cccc(Cl)c3)cn2)cn1 [Example 16] |  |  |  |  |  |  | 0.31 µmol/L | 0.06 µmol/L | 0.08 µmol/L | 640 nM | 500 nM | 70 nM | particularly potent inhibitory effect | particularly potent inhibitory effect
COc1ccc(C(=O)Nc2cn(Cc3cc(F)cc(F)c3F)cn2)cc1OC [Example 154] |  |  |  |  |  |  | 0.71 µmol/L | 0.8 µmol/L | 0.88 µmol/L | > 10000 nM | 890 nM | 600 nM |  | 
CC(=O)Nc1ccc(C(=O)Nc2cn(Cc3cccc(Cl)c3)cn2)cn1 [Example 247, 6-(Acetylamino)-N-[1-(3-chlorobenzyl)-1H-imidazol-4-yl]nicotinamide] | 9.22 µmol/L | 0.42 µmol/L | 7.25 µmol/L | 9840 nM | 7150 nM | 6800 nM |  |  |  |  |  |  |  | 
COc1ccc(C(=O)Nc2cn(Cc3cccc(Cl)c3)cn2)cc1OC [Example 141, N-[1-(3-chlorobenzyl)-1H-imidazol-4-yl]-3,4-dimethoxybenzamide] | 0.63 µmol/L | 0.52 µmol/L | 0.85 µmol/L | 4930 nM | 650 nM | 550 nM |  |  |  |  |  |  |  | 
COc1ccc(C(=O)Nc2cn(Cc3cc(F)ccc3F)cn2)cc1OC [Example 149] |  |  |  |  |  |  | 4.77 µmol/L | 0.75 µmol/L | 0.89 µmol/L | 7750 nM | 6180 nM | 2420 nM |  | 
COc1ccc(/C=C/C(=O)Nc2cn(Cc3cccc(C(F)(F)F)c3)cn2)cc1OCCO [Example 34, (2E)-3-[3-(2-hydroxyethoxy)-4-methoxyphenyl]-N-{1[3-(trifluoromethyl)benzyl]-1H-imidazol-4-yl}prop-2-enamide] | 0.09 µmol/L | 0.06 µmol/L | 0.09 µmol/L | 630 nM | 580 nM | 70 nM |  |  |  |  |  |  | particularly potent inhibitory effect | particularly potent inhibitory effect
O=C(Nc1ccncn1)c1cn(Cc2cccc(Cl)c2)cn1 [Example 261] |  |  |  |  |  |  | 0.61 µmol/L | 0.46 µmol/L | 0.59 µmol/L | 860 nM | 520 nM | 480 nM |  | 
Cc1cccc(NC(=O)c2cn(Cc3cccc(Cl)c3)cn2)n1 [Example 258] |  |  |  |  |  |  | 0.77 µmol/L | 0.7 µmol/L | 0.71 µmol/L | 9060 nM | 5750 nM | 5190 nM |  | 
CC(=O)Nc1ccc(/C=C/C(=O)Nc2cn(Cc3cc(F)c(F)c(F)c3)cn2)cc1 [Example 11, (2E)-3-[4-(acetylamino)phenyl]-N-[1-(3,4,5-trifluorobenzyl)-1H-imidazol-4-yl]prop-2-enamide] | < 0.01 µmol/L | 0.08 µmol/L | 0.08 µmol/L | 260 nM | 70 nM | 60 nM |  |  |  |  |  |  | particularly potent inhibitory effect | particularly potent inhibitory effect
COc1ccc(C(=O)Nc2cn(Cc3ccccc3F)cn2)cc1OC [Example 144] |  |  |  |  |  |  | 5.72 µmol/L | 4.71 µmol/L | 5.81 µmol/L | > 10000 nM | 5600 nM | 4320 nM |  | 
Cc1ccc2cc(NC(=O)c3cn(Cc4cccc(Cl)c4)cn3)ccc2n1 [Example 255, 1-(3-Chlorobenzyl)-N-(2-methylquinolin-6-yl)-1H-imidazole-4-carboxamide] | 0.06 µmol/L | < 0.01 µmol/L |  | 630 nM | 390 nM |  |  |  |  |  |  |  | particularly potent inhibitory effect | 
